Here are results for three molecules from paper PMC12036875, “Mitochondria-targeting natural product rhein conjugated with dichloroacetate as the dual inhibitor of glycolysis and oxidative phosphorylation to off energize cancer cells and induce ROS storm” (Theranostics, 2025).

One test has as its system 4T1 cells. In words: Immunogenic cell death detection in vitro (HMGB1, CRT, extracellular ATP). It counts as cell-based, Mouse. An excerpt:
It is known that mitochondrial dysfunction occasioned by ROS triggers immunogenic cell death (ICD), characterized by the release of DAMPs from tumor cells, such as high mobility group box 1 (HMGB1), calreticulin (CRT) and ATP. These DAMPs directly reactivated anti-tumor immune response of TAMs of in vivo [33]. Given the encouraging results of ROS generation, the ICD effect of Rhein-DCA conjugate was consequently explored in vitro. HMGB1 is a type of nuclear protein, which would be released to extracellular during the ICD process. […] This was because rhein, DCA, and the R + D cannot induce adequate production of ROS and sufficient ATP depletion (Figure 5F). We further detected the HMGB1 content in the cell culture media with an ELISA kit. […] This further confirmed that Rhein-DCA effectively promoted the release of HMGB1 from the cell nucleus to the extracellular space (Figure S20). Unlike HMGB1, abundant CRT often exposed on the cell membrane surface of tumor cells. Flow cytometry was employed to analyze CRT protein of 4T1 cells. […] The secreted ATP from 4T1 cells with immunogenicity was further measured to evaluate the ICD effect after being cultured with various drugs for 6, 12 and 24 h. […] There was no apparent distinction between rhein, DCA, R + D groups and the control group when co-cultured for 6 or 12 h. A slight difference was observed until the cultivation time was prolonged to 24 h. […] This reminded us that the Rhein-DCA conjugate may enhance tumor treatment by promoting ICD-mediated immunotherapy.
4T1 cells were seeded in 6-well plates and confocal dishes with an identical density of 10 × 10^4 cells per well for 24 h cultivation. The cells were processed with indicated drugs at a concentration of 6.25 μM for another 24 h. The cells were washed twice with PBS and then fixed with 4%-paraformaldehyde (1 mL) for 15 min at 37 °C, followed by two washes with PBS. (1) The cells on confocal dishes were next permeabilized with triton-X-100 for 15 min at room temperature, blocked with BSA solution (5% in PBS) for 1 h at room temperature, and further incubated with rabbit anti-mouse HMGB-1 (1:500) overnight at 4 °C. Afterwards, the cells were incubated with secondary antibody (1:500) for 1 h at room temperature, washed with PBS, and then stained with Hoechst 33342 (10 μg/mL) for 10 min in the dark at room temperature. Finally, confocal microscope was employed to observe the HMGB1 protein within the cells. The secretion of HMGB1 in culture medium was detected by ELISA assay. The culture media was collected and centrifuged at 1000 G for 20 min, the supernatant was collected and detected with ELISA kit according to the manufacturer's protocol. (2) The cells in the 6-well plates were collected in 1.5 mL tubes, stained with rabbit anti-mouse calreticulin (1:1000) for 30 min at 4 °C, washed twice with PBS, and then analyzed with flow cytometry. (3) For the extracellular ATP content, the cells were cultured for 6, 12 and 24 h at 37 °C, and the medium were collected and centrifuged at 1000 G for 20 min, the supernatant was collected and detection with ELISA kit according to the manufacturer's protocol.

In test [1] the test system is Cyt C protein in 4T1 cells. In words: Western blot of Cyt C. The test is classed as cell-based, Mouse. Particulars: 6.25 μM, 24 h. As to the method: The opening of mPTP in mitochondria often leads to the release of pro-apoptotic factor such as cytochrome C (Cyt C), thereby inducing apoptosis. Western blot was applied to measure the level of Cyt C in 4T1 cells after treatment with different drugs. The ratio of the integrated density value of target Cyt C protein to the internal parameter β-actin protein was also analyzed (Figure 4B). […] The released Cyt C in the rhein and R + D groups was 4.4- and 5.0-fold than that of the control group, respectively, clarifying that rhein component could boost the release of Cyt C in 4T1 cells.
4T1 cells were seeded in 6-well plates at a density of 20 × 10^4 cells per well and cultured for 24 h. Then the cells were treated with rhein, DCA, R + D and Rhein-DCA conjugate, each at a concentration of 6.25 μM for 24 h. Cells were washed twice with PBS and lysed by RIPA total protein extraction solution containing multiple protease inhibitors for 30 min while being maintained on ice. The lysate was centrifuged at 9391 G for 10 min at 4 °C to obtain the total protein solution. The concentrations of total protein were determined with BCA Protein Assay Kit. The protein was further denatured with 5 × protein loading buffer at 100 °C for 15 min. Sodium dodecyl sulfate polyacrylamide gel electrophoresis was conducted to separate the protein and transferred it to PVDF membranes. The PVDF membranes were blocked with 5% skim milk for 30 min at room temperature and incubated with indicated primary antibodies: Anti-Cytochrome C Rabbit pAb (1:1000); Anti-β-actin Rabbit pAb (1:1000); or Anti-PDHA1 Rabbit mAb (phosphoS^293) (1:1000) overnight at 4 °C. The membranes were incubated with HRP conjugated Goat Anti-Rabbit IgG (H+L) (1:5000), respectively, for 30 min at room temperature and then analyzed by chemiluminescence (Clinx,6100).
For orientation: Immunoblotting shows a protein as a band on a membrane.

Another test concerns 4T1 tumor tissue. The test can be described thus: Lactate detection in tumor tissue (ELISA). It counts as in vivo, Balb/c mice. Particulars: 20 mg/kg oral, 24 days. An excerpt:
The TAMs are the prominent components in the TEM and play a critical role in tumoral immunosuppression. Repolarization of protumor M2 phenotype into antitumor M1 phenotype is promising for malignant tumors. On the one hand, as a key metabolite fueling M2 polarization, lactate is very important in modulating the polarization state of macrophages within the tumor microenvironment. To verify that Rhein-DCA conjugate reprogrammed the metabolism of cells on solid tumors, we analyzed the expression of pPDHA1-Ser^293 protein in tumor tissues with immunohistochemical staining (IHC) (Figure 7A). […] The end product lactate of glycolysis decreased 20%, consistent with DCA's ability to reverse the Warburg effect. […] On the other hand, the ICD behavior of cancer cells also can activate TAMs into M1 polarization. Then, the release of HMGB1 was evaluated to assess the ICD effect in vivo with immunofluorescence staining (IF) (Figure 7C).
Tumor tissues were collected and homogenized in ice-cold PBS (1:10, w/v). The tissue was disrupted using sonication in ice bath (power 400 W, the duration of sonication is 3 s, the interval duration of 3 s, total sonication time of 20 min). The homogenate was centrifuged at 5000 G for 10 min at 4 °C to obtain the supernatant. The lactate content was analyzed with a lactate ELISA kit according to the manufacturer's protocol. The results were normalized to the weight of the tumor and reported as µmol lactate/g tissue.
For orientation: In an ELISA, binding on a coated surface is turned into a signal by an enzyme label.

As to `O=C(OCCOC(=O)C(Cl)Cl)c1cc(O)c2c(c1)C(=O)c1cccc(O)c1C2=O` [Rhein-DCA], the “HMGB1 in cell nucleus (CLSM red fluorescence)” value (shortened to “HMGB1 in cell nucleus”) in the test on 4T1 cells (6.25 μM, 24 h) is “disappeared”. The “surface-exposed CRT” value in the test on 4T1 cells (6.25 μM, 24 h, flow cytometry) came out at 44%. Further, the “HMGB1 secreted into the culture medium (ELISA)” value in the test on 4T1 cells (6.25 μM, 24 h, vs control, rhein, DCA, R + D) is given as “increased significantly”. The “extracellular ATP in supernatants” value with 4T1 cells (6 h to 24 h, vs other groups) was “higher”. The “released Cyt C, in words” value in test [1] is “more Cyt C than rhein and R + D groups”. The “tumor lactate level as percentage of the vehicle group” value with 4T1 tumor tissue is listed as 44%.

For the molecule `O=C(O)C(Cl)Cl` [DCA, Dichloroacetate], the “HMGB1 in cell nucleus” value in the test on 4T1 cells (6.25 μM, 24 h) was “almost completely located in nuclei”. In addition, the “released Cyt C, in words” value in test [1] was “could almost be disregarded”. The “decrease of tumor lactate” value with 4T1 tumor tissue (vs vehicle) was determined as 20%.

As for `O=C(O)c1cc(O)c2c(c1)C(=O)c1cccc(O)c1C2=O` [Rhein, 4,5-dihydroxyanthraquinone-2-carboxylic acid], the “HMGB1 in cell nucleus” value in the test with 4T1 cells (6.25 μM, 24 h) was “almost completely located in nuclei”. Moreover, the “released Cyt C relative to control group (Cyt C/β-actin)” value in test [1] stood at 4.4 fold. The “tumor lactate level, in words” value with 4T1 tumor tissue is listed as “reduced tumor lactate levels”.
